From patent US20260027145A1 (priority 2022, published 2026)
“Also recorded” adds a separate entry of the source. Like-named read-outs stand apart in the source and are kept apart here.

Tests used:
resting pan-T cells [1] = system: resting pan-T cells
CD8+ cells = format: cell-based, human
resting pan-T cells [2] = format: cell-based, human
IFITM1 [3] = format: cell-based, human
IFITM1 [4] = format: cell-based, human; remark: listed apart in the source
IFITM1 [5] = format: cell-based, human; remark: listed apart in the source
pSAMHD1 = format: cell-based, human
resting pan-T cells [6] = format: cell-based, human; remark: listed apart in the source
[7] = system: phosphorylated SAMHD1 (pSAMHD1); format: cell-based, human; conditions: CD4+ and CD8+ T cells; for proportion of pSAMHD1 to total SAMHD1: IL-7 15 ng/mL, IL-15 15 ng/mL or both
Procedure: The effect of IL-7 and IL-15 on phosphorylated SAMHD1 (pSAMHD1) and IFITM1 expression was assessed. CD4+ and CD8+ T cells were treated with either IL-2 (100 U/mL), IL-15 (15 ng/mL), IL-7 (15 ng/mL), or a composition comprising both IL-7 and IL-15. Cells were activated with anti-CD3/[…] antibody coated beads at a ratio of 3:1, and then cells were assessed for expression of IFITM1 or pSAMHD1. Aggregate densitometry across multiple donors are shown in FIG. 3A (CD8+) and FIG. 3B (CD4+), while representative western blots are also depicted in FIG. 3C (CD8+) and FIG. 3D (CD4+).

IFITM1 [8] = format: cell-based, human; remark: listed apart in the source

With `CO[C@H]1C[C@@H]2CC[C@@H](C)[C@@](O)(O2)C(=O)C(=O)N2CCCC[C@H]2C(=O)O[C@H]([C@H](C)C[C@@H]2CC[C@@H](OC(=O)C(C)(CO)CO)[C@H](OC)C2)CC(=O)[C@H](C)/C=C(\C)[C@@H](O)[C@@H](OC)C(=O)[C@H](C)C[C@H](C)/C=C/C=C/C=C/1C` [TEM, temsirolimus] the CD3 number (resting pan-T cells [1]) was “remained generally consistent”, the “CD8 and CD4 T-cells (cell counts)” value (resting pan-T cells [1]) was “reduced” and the “transduction efficiency (viral copy number per diploid genome)” value (CD8+ cells) was “Increased transduction efficiency”. The “transduction of the GFP transgene (% GFP)” value (resting pan-T cells [2]) was “enhance transduction” and the IFITM1 protein expression (IFITM1 [3]) was “pronounced loss of IFITM1 protein expression”.

For `C[C@@H]1[C@H](O)[C@@H](C)/C=C/C=C/C=C/C=C/C=C/C=C/C=C/[C@H](O[C@@H]2O[C@H](C)[C@@H](O)[C@H](N)[C@@H]2O)C[C@@H]2O[C@](O)(C[C@@H](O)C[C@@H](O)[C@H](O)CC[C@@H](O)C[C@@H](O)CC(=O)O[C@H]1C)C[C@H](O)[C@H]2C(=O)O` [AmphoB, Amphotericin B], the “CD8 and CD4 cell number” value (resting pan-T cells [1]) was “slightly reduced”, the “concentrations at which gain in transduction efficiency is seen” value (resting pan-T cells [2]) was no less than 0.1 µM and the “transduction efficiency (% GFP)” value (resting pan-T cells [2]) was “increased transduction efficiency”. For the same compound, the “restriction factor IFITM1 (western blot)” value (IFITM1 [4]) was “inactivation or loss”.

IL-7: recombinant cytokine was tested, and the IFITM1 expression (IFITM1 [5]) was “similarly increased”, the “cytotoxicity (Nalm6 loss related to untransduced controls)” value (Nalm6 cells) was “Increased cytotoxicity” and the “transduction efficiency (% GFP) with cytokine pretreatment” value (resting pan-T cells [2]) was “positively impact transduction; also recorded: increased transduction efficiency”. The pSAMHD1 levels (pSAMHD1) was “increase in pSAMHD1 levels”, the “transduction efficiency (% GFP)” value (resting pan-T cells [6]) was “did not lead to dose-dependent differences in transduction efficiency” and the “levels of pSAMHD1” value ([7]; IL-7 15 ng/mL pre-treatment) was “increased levels of pSAMHD1”. The “proportion of pSAMHD1 to total SAMHD1” value [7] was “increased”.

IL-15: recombinant cytokine was tested, and the IFITM1 expression (IFITM1 [5]) was “similarly increased” and the “proportion of pSAMHD1 to total SAMHD1” value [7] was “increased”.

With `CO[C@H]1C[C@@H]2CC[C@@H](C)[C@@](O)(O2)C(=O)C(=O)N2CCCC[C@H]2C(=O)O[C@H]([C@H](C)C[C@@H]2CC[C@@H](O)[C@H](OC)C2)CC(=O)[C@H](C)/C=C(\C)[C@@H](O)[C@@H](OC)C(=O)[C@H](C)C[C@H](C)/C=C/C=C/C=C/1C` [rapamycin] the “downregulation of IFITM1 expression” value (IFITM1 [8]) was 20-35% and the “reduction of IFITM1 expression” value (IFITM1 [8]) was 5-40%.
